According to patent US5445944A, “Methods for determining peroxidately active substances” (Syntex (U.S.A.) Inc., priority 1994, dated 1995):

Legend:
[1] = Trapping of / reaction with oxidized dicarboxidine in solution
[2] = Suitability of benzidines as hydrogen donor in the peroxidase cleavage reaction
HRP [3] = biological target: T1, HRP (Armoracia rusticana, UniProt P00433); experiment: Release of fluorophore at pH 7.0 (HRP/H2O2); format: biochemical, horseradish; conditions: phosphate buffer 0.1M pH 7.0, H2O2, 0.1 mL HRP (100 ng/mL); experiment repeated (two lines)
T1 sequence (P00433 31-338 limits assumed): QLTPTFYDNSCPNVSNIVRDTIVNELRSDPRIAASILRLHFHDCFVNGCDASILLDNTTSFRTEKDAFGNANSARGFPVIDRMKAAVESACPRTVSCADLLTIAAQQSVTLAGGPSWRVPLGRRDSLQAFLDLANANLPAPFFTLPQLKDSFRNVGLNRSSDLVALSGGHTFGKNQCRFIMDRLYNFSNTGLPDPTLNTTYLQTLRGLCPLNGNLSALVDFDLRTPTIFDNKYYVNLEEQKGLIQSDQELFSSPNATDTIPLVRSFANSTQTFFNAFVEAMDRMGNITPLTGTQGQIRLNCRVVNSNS
Experimental: 0.01 mL of dicarboxidine 11 (or XV), 0.1 mL of 49 and 0.04 mL of H2 O2 were added to 0.75 mL (0.76 mL) of phosphate buffer (0.1M, pH 7.0). 0.1 mL of HRP (100 ng/mL) was added to start the reaction and the spectra recorded. This experiment was repeated.

HRP [4] = biological target: T1, HRP; experiment: Release of fluorophore, pH jump method (HRP/H2O2 cleavage at pH 5.0, fluorescence read at pH 8.0); format: biochemical, horseradish; conditions: pH jump: reaction in citrate buffer pH 5.0 with H2O2 and 0.1 mL HRP (10 ng/mL); aliquot read in phosphate buffer pH 8.0; experiment repeated (two lines)
Experimental: 0.01 mL of dicarboxidine 11 (or XV), 0.1 mL of 49 and 0.04 mL of H2 O2 were added to 0.75 mL (0.76 mL) citrate buffer (pH 5.0, 0.1M); 0.1 mL of HRP (10 ng/mL) was added to start the reaction. 0.05 mL of this solution was taken every three minutes and added to 0.95 mL of phosphate buffer (pH 8.0, 1.0M) and spectra recorded. This experiment was repeated.
Results: Fluorescence after 3 minutes--background fluorescence.

Row | Compound | Effect on / reaction with oxidized dicarboxidine [1] | Function as benzidine hydrogen donor [2] | further results
1 | COc1ccc(O)c(C(=O)O)c1 [2-hydroxy-5-methoxy benzoic acid] | has no effect on oxidized dicarboxidine |  | 
2 | Cc1cc(-c2ccc(N)c(C)c2)ccc1N [3,3'-dimethylbenzidine] |  | function in the present invention | 
3 | Cc1cc(-c2cc(C)c(N)c(C)c2)cc(C)c1N [3,3',5,5'-tetramethylbenzidine] |  | do not react at a rate acceptable for assays | 
4 | Nc1ccc(-c2ccc(N)cc2)cc1 [benzidine] |  | function in the present invention | 
5 | O=C(NCCS(=O)(=O)O)c1cc2ccc(Oc3ccc(O)cc3)cc2oc1=O [Compound 49] |  |  | Fluorescence (HRP [3]): 40 F.U.; Fluorescence after 3 minutes--background fluorescence (HRP [4]): 0.50 F.U.
6 | COc1ccc(O)cc1C(=O)O [2-methoxy-5-hydroxybenzoic acid] | react with oxidized dicarboxidine |  | 
7 | O=C(O)c1cc(O)ccc1O [Gentisic acid, gentisic acid] | react with oxidized dicarboxidine |  | 
8 | COc1ccc(OC)cc1 [Para-methoxy anisole] | has no effect on oxidized dicarboxidine |  | 
9 | COc1ccccc1OC [ortho-methoxy anisole] | has no effect on oxidized dicarboxidine |  | 
10 | CN(C)c1ccc(-c2ccc(N(C)C)cc2)cc1 [N,N,N',N'-tetramethylbenzidine] |  | do not react at a rate acceptable for assays | 
